In US10793547B2, “Modulator of the cystic fibrosis transmembrane conductance regulator, pharmaceutical compositions, methods of treatment, and process for making the modulator” (Vertex Pharmaceuticals Incorporated, priority 2016, dated 2020):

How the values were obtained:
Rat IV and PO PK studies = type: in vivo, male Sprague-Dawley rats; settings: for RAT PLASMA-RAW IV-bolus CL_drg: nominal 3.0 mg/kg; for RAT PLASMA-RAW PO % F_drg / AUC(0-inf): nominal 3 mg/kg, PO; for AUC(0-inf): male, Sprague-Dawley, plasma, read-out: RAT PLASMA-RAW PO AUC (0-inf)_drg
Experimental: C. Experimental Protocol for Rat IV and PO PK Studies
The tested compound was administered to male Sprague-Dawley rats as a single nominal intravenous dose of 3.0 mg/kg as a solution in 10% NMP, 10% solution, 15% EtOH, 35% PEG400 and 30% D5W. The tested compound was also administered to male Sprague-Dawley rats at single nominal oral dose of 3 mg/kg as a solution in 5% NMP, 30% PEG400, 10% TPGS, 5% PVP-K30 at 5 mL/kg dose volume. Analyses of plasma and dose preparations were performed using LC/MS/MS.
Plasma concentration-time profiles of the tested compound in Sprague-Dawley rats at scheduled (nominal) sampling times were analyzed by noncompartmental pharmacokinetic methods using PK function within Watson LIMS software, Version 7.4.2 (Thermo Scientific Inc, Waltham, Mass.). AUC values were calculated using the linear trapezoidal rule.

F508del-CFTR = target: T1, F508del-CFTR (Homo sapiens, UniProt P13569, DEL508-508); assay: Membrane potential optical (FLIPR) assay for F508del-CFTR modulators in NIH 3T3 cells; type: cell-based; settings: NIH 3T3 cells expressing F508del; assay A1; read-out: CFTRdF508 Cor 3T3 FLIPR 384 CFTRdF508 MP 3T3 770 EC50
T1 construct: expressed in transfected cells
T1 sequence (P13569 with tags, fused parts or gaps DEL508-508): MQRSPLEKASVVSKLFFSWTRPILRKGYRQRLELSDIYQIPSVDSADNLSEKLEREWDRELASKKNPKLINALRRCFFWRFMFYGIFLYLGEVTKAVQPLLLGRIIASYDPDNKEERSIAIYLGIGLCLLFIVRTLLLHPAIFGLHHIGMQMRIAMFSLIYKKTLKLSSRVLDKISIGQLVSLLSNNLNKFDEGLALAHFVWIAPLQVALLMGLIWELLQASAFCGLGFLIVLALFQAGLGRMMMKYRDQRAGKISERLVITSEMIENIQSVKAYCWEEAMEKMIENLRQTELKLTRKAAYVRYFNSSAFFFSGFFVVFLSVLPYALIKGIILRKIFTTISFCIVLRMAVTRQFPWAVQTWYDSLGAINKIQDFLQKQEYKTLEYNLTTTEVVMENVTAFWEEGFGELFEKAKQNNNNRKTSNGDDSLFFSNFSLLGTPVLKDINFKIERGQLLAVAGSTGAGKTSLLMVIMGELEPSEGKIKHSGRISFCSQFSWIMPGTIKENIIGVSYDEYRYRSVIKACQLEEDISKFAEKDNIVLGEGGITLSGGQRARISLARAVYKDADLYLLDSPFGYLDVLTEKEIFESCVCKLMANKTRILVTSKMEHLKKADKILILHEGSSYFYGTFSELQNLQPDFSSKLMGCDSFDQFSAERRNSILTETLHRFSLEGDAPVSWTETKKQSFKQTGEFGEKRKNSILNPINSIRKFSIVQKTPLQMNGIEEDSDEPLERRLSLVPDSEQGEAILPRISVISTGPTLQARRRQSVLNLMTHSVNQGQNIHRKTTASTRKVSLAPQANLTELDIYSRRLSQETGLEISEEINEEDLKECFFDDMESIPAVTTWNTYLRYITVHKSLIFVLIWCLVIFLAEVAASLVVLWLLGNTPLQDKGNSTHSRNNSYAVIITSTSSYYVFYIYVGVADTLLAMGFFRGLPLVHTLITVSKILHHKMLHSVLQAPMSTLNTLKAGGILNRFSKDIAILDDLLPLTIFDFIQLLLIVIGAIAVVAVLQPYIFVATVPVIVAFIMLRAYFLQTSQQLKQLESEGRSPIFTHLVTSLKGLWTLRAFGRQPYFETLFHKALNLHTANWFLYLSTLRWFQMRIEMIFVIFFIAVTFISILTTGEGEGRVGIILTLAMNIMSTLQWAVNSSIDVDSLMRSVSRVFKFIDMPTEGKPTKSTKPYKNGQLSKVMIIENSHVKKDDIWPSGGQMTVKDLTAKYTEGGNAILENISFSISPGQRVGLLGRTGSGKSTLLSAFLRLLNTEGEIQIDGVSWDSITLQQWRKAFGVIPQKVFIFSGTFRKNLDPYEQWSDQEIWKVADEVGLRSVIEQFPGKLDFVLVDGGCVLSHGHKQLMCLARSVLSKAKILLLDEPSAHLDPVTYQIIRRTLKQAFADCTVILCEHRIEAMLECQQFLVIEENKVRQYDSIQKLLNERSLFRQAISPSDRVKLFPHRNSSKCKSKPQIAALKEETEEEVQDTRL
Description: Membrane Potential Optical Methods for Assaying Properties of F508del-CFTR Modulators
The assay utilizes fluorescent voltage sensing dyes to measure changes in membrane potential using a fluorescent plate reader (e.g., FLIPR III, Molecular Devices, Inc.) as a readout for increase in functional F508del in NIH 3T3 cells. The driving force for the response is the creation of a chloride ion gradient in conjunction with channel activation and concurrent with compound treatment by a single liquid addition step after the cells have previously been loaded with a voltage sensing dye.
A1. Identification of F508del-CFTR Modulators
To identify modulators of F508del, a fluorescence based HTS assay format was developed. This HTS assay utilizes fluorescent voltage sensing dyes to measure changes in membrane potential on the FLIPR III as a measurement for increase in gating (conductance) of F508del NIH 3T3 cells. The driving force for the response is the creation of a chloride ion gradient in conjunction with channel activation and concurrent with compound treatment by a single liquid addition step after the cells have previously been loaded with a voltage sensing dye.
Bath Solution #1: (in mM) NaCl 160, KCl 4.5, CaCl2 2, MgCl2 1, HEPES 10, pH 7.4 with NaOH, Glucose 10.
Chloride-free bath solution: Chloride salts in Bath Solution #1 (above) are substituted with gluconate salts.
NIH3T3 mouse fibroblasts stably expressing F508del were used for optical measurements of membrane potential. The cells were maintained at 37° C. in 5% CO2 and 90% humidity in Dulbecco's modified Eagle's medium supplemented with 2 mM glutamine, 10% fetal bovine serum, 1×NEAA, β-ME, 1× pen/strep, and 25 mM HEPES in 175 cm^2 culture flasks. For all optical assays, the cells were seeded at 12,000 cells/well in 384-well matrigel-coated plates and cultured for 18-24 hrs at 37° C. for the potentiator assay. For the correction assay, the cells were cultured at 37° C. with and without compounds for 18-24 hours.

Rat hepatocytes = assay: Hepatocyte clearance, rat hepatocytes; type: in vitro ADME; settings: percent unchanged
[1] = MDCK-Wild Type permeability, 96 well + 0.1% BSA; type: in vitro ADME; settings: dog, MDCK, A-B direction, read-out: MDCK-Wild Type-Permeability 96 well + 0.1% BSA Papp compound (A-B)
human PXR = target: T2, human PXR (Homo sapiens, UniProt O75469); assay: PXR assay: PXR mediated CYP3A4 induction in DPX-2 cell line; type: cell-based; settings: DPX-2 cells
T2 construct: host or cells: DPX-2 cell line (derived from HepG2)
T2 sequence (O75469 1-434): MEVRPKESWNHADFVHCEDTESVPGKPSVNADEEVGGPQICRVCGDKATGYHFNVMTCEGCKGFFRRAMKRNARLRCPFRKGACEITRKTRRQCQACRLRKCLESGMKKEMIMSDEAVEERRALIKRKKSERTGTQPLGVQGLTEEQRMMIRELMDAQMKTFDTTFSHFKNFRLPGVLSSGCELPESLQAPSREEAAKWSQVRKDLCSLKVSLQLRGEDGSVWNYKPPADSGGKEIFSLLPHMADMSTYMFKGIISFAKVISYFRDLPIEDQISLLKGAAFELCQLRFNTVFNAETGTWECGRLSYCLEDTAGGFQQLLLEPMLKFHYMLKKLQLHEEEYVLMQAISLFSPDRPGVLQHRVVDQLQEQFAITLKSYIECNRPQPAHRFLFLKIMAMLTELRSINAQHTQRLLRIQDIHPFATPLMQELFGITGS
Experimental: D. Experimental Protocol for PXR Assay
The propensity for PXR mediated CYP3A4 induction is assessed using the DPX-2 cell line in vitro. This cell line, which has been licensed from Puracyp Inc. was derived from HepG2 cells and has been stably transfected with genes encoding human PXR as well as a modified luciferase reporter linked to the CYP3A4 promoter region and related distal and proximal enhancers.
The assay is run in 384 well format and each test article is administered in 11 doses ranging from 0.1 to 60 μM. On day 1, DPX-2 cells which have previously been expanded in-house and cryopreserved are thawed and seeded in tissue culture plates. The following day, media is changed and cells are cultured in media containing test article, vehicle control or the positive control compound, the clinically validated CYP3A4 inducer rifampicin. Cells are cultured in the presence of test article for 48 hours and then cell viability is assessed using fluorescence based assay (Cell Titer-Fluor, Promega) with an EnVision Plate Reader (PerkinElmer). Subsequently, CYP3A4 transactivation, which is proportional to luciferase activity, is measured by reading luminescense using the Promega One-Glo reagent system using the same plate reader.
Data processing within the Genedata software package allows reporting of max fold induction compared to vehicle control, an EC50 value for CYP3A4 inducers and an 11 point-dose response curve.

Cc1nn(C)cc1S(=O)(=O)NC(=O)c1ccc(-n2ccc(OCC3C(C)(C)C3(C)C)n2)nc1N1C[C@@H](C)CC1(C)C [Compound 20, N-(1,3-dimethylpyrazol-4-yl)sulfonyl-6-[3-[(2,2,3,3-tetramethylcyclopropyl)methoxy]pyrazol-1-yl]-2-[(4S)-2,2,4-trimethylpyrrolidin-1-yl]pyridine-3-carboxamide]
RAT PLASMA-RAW IV-bolus CL_drg (Rat IV and PO PK studies): 4.9 mL/min/kg | RAT PLASMA-RAW PO % F_drg (Rat IV and PO PK studies): 21% | AUC(0-inf) (Rat IV and PO PK studies): 3000 ng·h/mL | EC50 (F508del-CFTR): 170 nM | Hepatocyte clearance-Rat Rat hepatocytes CL pct_unchanged (Rat hepatocytes): 13% | Papp A→B [1]: 1.4 ×10⁻⁶ cm/s | CYP3A4 Induction-PXR human PXR internal Max % Activity (human PXR): 4%

Cc1c(S(=O)(=O)NC(=O)c2ccc(-n3ccc(OCC4C(C)(C)C4(C)C)n3)nc2N2C[C@@H](C)CC2(C)C)cnn1C [Compound 21, N-(1,5-dimethylpyrazol-4-yl)sulfonyl-6-[3-[(2,2,3,3-tetramethylcyclopropyl)methoxy]pyrazol-1-yl]-2-[(4S)-2,2,4-trimethylpyrrolidin-1-yl]pyridine-3-carboxamide]
RAT PLASMA-RAW IV-bolus CL_drg (Rat IV and PO PK studies): 6.7 mL/min/kg | RAT PLASMA-RAW PO % F_drg (Rat IV and PO PK studies): 47% | AUC(0-inf) (Rat IV and PO PK studies): 3900 ng·h/mL | EC50 (F508del-CFTR): 520 nM | Hepatocyte clearance-Rat Rat hepatocytes CL pct_unchanged (Rat hepatocytes): 0% | Papp A→B [1]: 3 ×10⁻⁶ cm/s | CYP3A4 Induction-PXR human PXR internal Max % Activity (human PXR): 1%

Cc1c(S(=O)(=O)NC(=O)c2ccc(-n3ccc(OCC(C)(C)C(F)(F)F)n3)nc2N2C[C@@H](C)CC2(C)C)cnn1C [Compound 13, N-(1,5-dimethylpyrazol-4-yl)sulfonyl-6-[3-(3,3,3-trifluoro-2,2-dimethyl-propoxy)pyrazol-1-yl]-2-[(4S)-2,2,4-trimethylpyrrolidin-1-yl]pyridine-3-carboxamide]
RAT PLASMA-RAW IV-bolus CL_drg (Rat IV and PO PK studies): 3 mL/min/kg | RAT PLASMA-RAW PO % F_drg (Rat IV and PO PK studies): 65% | AUC(0-inf) (Rat IV and PO PK studies): 13400 ng·h/mL | EC50 (F508del-CFTR): 130 nM | Hepatocyte clearance-Rat Rat hepatocytes CL pct_unchanged (Rat hepatocytes): 117% | Papp A→B [1]: 11.7 ×10⁻⁶ cm/s | CYP3A4 Induction-PXR human PXR internal Max % Activity (human PXR): 4%

Cc1c(S(=O)(=O)NC(=O)c2ccc(-n3ccc(OCCC4(C(F)(F)F)CC4)n3)nc2N2C[C@@H](C)CC2(C)C)cnn1C [Compound 14, N-(1,5-dimethylpyrazol-4-yl)sulfonyl-6-[3-[2-[1-(trifluoromethyl)cyclopropyl]ethoxy]pyrazol-1-yl]-2-[(4S)-2,2,4-trimethylpyrrolidin-1-yl]pyridine-3-carboxamide]
RAT PLASMA-RAW IV-bolus CL_drg (Rat IV and PO PK studies): 3.9 mL/min/kg | RAT PLASMA-RAW PO % F_drg (Rat IV and PO PK studies): 61% | AUC(0-inf) (Rat IV and PO PK studies): 10500 ng·h/mL | EC50 (F508del-CFTR): 280 nM | Hepatocyte clearance-Rat Rat hepatocytes CL pct_unchanged (Rat hepatocytes): 50% | Papp A→B [1]: 2.8 ×10⁻⁶ cm/s | CYP3A4 Induction-PXR human PXR internal Max % Activity (human PXR): 2%

Cc1nn(C)cc1S(=O)(=O)NC(=O)c1ccc(-n2ccc(OCC3(C(F)(F)F)CC3)n2)nc1N1CC(C(C)(C)C)CC1(C)C (single isomer, unassigned) [Compound 54, 2-(4-tert-butyl-2,2-dimethyl-pyrrolidin-1-yl)-N-(1,3-dimethylpyrazol-4-yl)sulfonyl-6-[3-[[1-(trifluoromethyl)cyclopropyl]methoxy]pyrazol-1-yl]pyridine-3-carboxamide]
EC50 (F508del-CFTR): 50 nM | Hepatocyte clearance-Rat Rat hepatocytes CL pct_unchanged (Rat hepatocytes): 30% | Papp A→B [1]: 1.1 ×10⁻⁶ cm/s | CYP3A4 Induction-PXR human PXR internal Max % Activity (human PXR): 5%

Cc1nn(C)cc1S(=O)(=O)NC(=O)c1ccc(-n2ccc(OCC3C[C@@H]4CC[C@H]3C4)n2)nc1N1C[C@@H](C)CC1(C)C (stereo partly drawn) [Compound 50, N-(1,3-dimethylpyrazol-4-yl)sulfonyl-6-[3-[[(1S,4R)-norbornan-2-yl]methoxy]pyrazol-1-yl]-2-[(4S)-2,2,4-trimethylpyrrolidin-1-yl]pyridine-3-carboxamide]
EC50 (F508del-CFTR): 80 nM | Hepatocyte clearance-Rat Rat hepatocytes CL pct_unchanged (Rat hepatocytes): 20% | Papp A→B [1]: 1.3 ×10⁻⁶ cm/s | CYP3A4 Induction-PXR human PXR internal Max % Activity (human PXR): 4%

C[C@@H]1CN(c2nc(-n3ccc(OCC4(C(F)(F)F)CC4)n3)ccc2C(=O)NS(=O)(=O)c2cnn(C(C)(C)C)c2)C(C)(C)C1 [Compound 8, N-(1-tert-butylpyrazol-4-yl)sulfonyl-6-[3-[[1-(trifluoromethyl)cyclopropyl]methoxy]pyrazol-1-yl]-2-[(4S)-2,2,4-trimethylpyrrolidin-1-yl]pyridine-3-carboxamide]
EC50 (F508del-CFTR): 400 nM | Hepatocyte clearance-Rat Rat hepatocytes CL pct_unchanged (Rat hepatocytes): 62% | Papp A→B [1]: 3.2 ×10⁻⁶ cm/s | CYP3A4 Induction-PXR human PXR internal Max % Activity (human PXR): 10%

Cc1nn(C)cc1S(=O)(=O)NC(=O)c1ccc(-n2ccc(OC3CC3C(F)(F)F)n2)nc1N1C[C@@H](C)CC1(C)C (stereo partly drawn) [Compound 34, N-(1,3-dimethylpyrazol-4-yl)sulfonyl-6-[3-[2-(trifluoromethyl)cyclopropoxy]pyrazol-1-yl]-2-[(4S)-2,2,4-trimethylpyrrolidin-1-yl]pyridine-3-carboxamide]
EC50 (F508del-CFTR): 610 nM | Hepatocyte clearance-Rat Rat hepatocytes CL pct_unchanged (Rat hepatocytes): 39% | Papp A→B [1]: 7.5 ×10⁻⁶ cm/s | CYP3A4 Induction-PXR human PXR internal Max % Activity (human PXR): 6%

Cc1nn(C)cc1S(=O)(=O)NC(=O)c1ccc(-n2ccc(OCC3C4CCC3CC4)n2)nc1N1C[C@@H](C)CC1(C)C (stereo partly drawn) [Compound 52, N-(1,3-dimethylpyrazol-4-yl)sulfonyl-6-[3-(norbornan-7-ylmethoxy)pyrazol-1-yl]-2-[(4S)-2,2,4-trimethylpyrrolidin-1-yl]pyridine-3-carboxamide]
EC50 (F508del-CFTR): 170 nM | Hepatocyte clearance-Rat Rat hepatocytes CL pct_unchanged (Rat hepatocytes): 18% | Papp A→B [1]: 2 ×10⁻⁶ cm/s | CYP3A4 Induction-PXR human PXR internal Max % Activity (human PXR): 2%

Cc1nn(C)cc1S(=O)(=O)NC(=O)c1ccc(-n2ccc(OCCC(C3CC3)C3CC3)n2)nc1N1C[C@@H](C)CC1(C)C [Compound 38, 6-[3-(3,3-dicyclopropylpropoxy)pyrazol-1-yl]-N-(1,3-dimethylpyrazol-4-yl)sulfonyl-2-[(4S)-2,2,4-trimethylpyrrolidin-1-yl]pyridine-3-carboxamide]
EC50 (F508del-CFTR): 110 nM | Hepatocyte clearance-Rat Rat hepatocytes CL pct_unchanged (Rat hepatocytes): 56% | Papp A→B [1]: 1 ×10⁻⁶ cm/s | CYP3A4 Induction-PXR human PXR internal Max % Activity (human PXR): 2%
